From patent US20210393549A1, “New use of R-enantiomer of adrenergic beta 2 receptor agonists for treatment of inflammatory bowel disease and its extra intestinal manifestations” (priority 2018, published 2021)
“Also recorded” adds a separate entry of the source.

Key:
[1] = test system: acne, maliaria, hives and eczema; assay: Topical use on acne, maliaria, hives and eczema; format: in vivo
psoriasis and eczema = assay: Oral administration in rats, psoriasis and eczema; format: in vivo
[2] = test system: DSS induced sub-acute colitis; format: in vivo; details: treatments started at day 7th till day 22nd
[3] = test system: DNCB induced allergic contact dermatitis; assay: DNCB induced allergic contact dermatitis model (eczema); format: in vivo, mice
Description: Mice was shaved at abdominal area DNCB (100 μL 0.5%) is dissolved and applied to the shaved skin to induce Atopica dermatitis for 2 consecutive days. At day 8th, DNCB was applied to both inner and outer surfaces of ears to induce eczema. Treatment of R-salbutamol and indomethacin were given orally at day 1st for consecutive 8 days. The mice were scarified at day 9th for examination and evaluation. Mice were divided into four groups (n=8), namely A, Control; B. Eczema (DNCB); C. Eczema plus R-Salbutamol of 0.05, 0.1 or 0.2 mg/kg; D. Eczema plus indomethacin of 5 mg/kg. The inflammation scores were evaluated according to swelling, erythema, scratch and thickness of both ears. [table]

TNBS-induced colitis = TNBS-induced colitis (model for Crohn's disease); format: in vivo, Male mice
Source text: Male mice colitis was induced by rectal co-administration of ethanol and TNBS (Trinitrobenzenesulfonic acid). Severe colitis in mice that was characterized by weight loss and diarrhea. Histologically there were loss of normal structures, visible discrete epithelioid granuloma, multiple erosive lesions, massive transmural inflammation infiltration of lymphocytes, and the loss of goblet cells. […] There was significant alleviation of lesions, few inflammatory infiltration with growing crypts and recovery mucosa epithelia along the column. […] In addition, in TNBS treated colitis mice, there were perianal symptoms: erythema, abscesses and ulcers found in some mice, which may lead to perianal fissures or fistulas. […] The therapeutically effects of R-salbuterol, R-clenbuterol and R-bambuterol on the symptoms in TNBS induced Crohn's disease has never been reported in prior art.

[4] = test system: DSS induced sub-acute colitis; format: in vivo; parameters: DAI (disease active index) / FOB (fecal occult blood) / Hist score (histological score): scale not given here; Weight / Col Length (colon length): unit not given here
Source text: This invention also disclosed the used of R-salbutamol for treatment of sub acute or chronic phases of IBD. In one embodiment, IBD was induced by DSS as mentioned above, along with the treatment of R-salbutamol, at day 7th, DSS was removed and replaced with drinking water for additional 2 weeks. The disease active index (DAI) of mice was examined and evaluated periodically. The mice were scarified for pathological and histological evaluations at day of 23rd. In DSS induce IBD mice, there were significant loss of weight and fecal occult blood at day 14th and 22nd. The overall condition of colitis was severe although there was slightly improvement comparing the day 7th. The colon-rector length was significant shortened, and histological score were significant higher from control. In mice with DSS induced colitis, there were significant mononuclear leucocytes infiltration, few newly grew crypts with architectural disarray, denegation of epithelia, mucosa aberrant. There was also deep mucosal lymphocytosis, destruction of lamina propria and sometimes, transmural inflammation.
Same as example 1, except • 1), Three weeks' study with one week treatment.
DSS and all the treatment was removed and replaced with drinking water at the end of 1st week. Mice were given drink water and food ad libitum for additional 2 weeks.

[5] = test system: IMQ-induced Psoriasis-Like Skin lesions; assay: IMQ-induced psoriasis-like skin lesions; format: in vivo, mice
Description: Mice were divided into control, psoriasis and psoriasis plus treatment groups, (n=8 in each group). Psoriasis were induced by topical application of imiquimod cream (62.5 mg) on shaved dorsal skin for seven consecutive days. Vaseline was used in control group. There were four treatment groups: three doses of R-salbutamol (R-Sal) (0.5 mg, 1 mg, 2 mg/kg) and Dexamethasone (1 mg/kg) as positive control. All the treatments and same volume of saline (in control group) were administered orally. In some experiment, R-bambuterol (long-last beta2 agonist) was used as an additional treatment group (n=3). Psoriasis Area Severity Index were used for evaluation. Each of the scores for erythema, scaling and skin thickness were measured separately and then group together as a calculative score. (FIG. 2)

[6] = test system: hemorrhoid inflammation symptoms; assay: Hemorrhoid inflammation symptoms, oral or topical; format: in vivo; details: given either orally or topically
Source text: These perianal pathological changes somewhat similar to hemorrhoid inflammation symptoms. […] This new used of beta2 agonists in treatment of hemorrhoid inflammation symptoms has never been disclosed in prior art.

[7] = test system: signal transducer and activator of transcription protein (Stat 2); assay: Stat 2 mRNA expression in psoriasis mice; format: in vivo; details: plasma of psoriasis mice, dose-response fashion
Source text: (§1) There was enhanced expression of mRNA of Janus kinase 2 (JAK2), a non-receptor tyrosine kinase, and the signal transducer and activator of transcription protein (Stat 2) in the plasma of psoriasis mice in comparison of control, Indicating an increase of JAK2 and Stat 2 proteins. These over expression of mRNA was inhibited by R-salbutamol in a dose-response fashion. (FIG. 3 left & right)

[8] = test system: knee joints (articular cartilage, meniscus); assay: Damage of knee joints in DSS induced IBD mice; format: in vivo; details: compared with untreated DSS mice
Source text: In one embodiment, in DSS induced IBD mice, there was also a damage of knee joints. The articular cartilage structure became thinner and partially destroyed. The chondrocytes were degenerated, decreased and clustered. The meniscuses were damaged and lost its structural integrity. In X-ray, the layer of articular cartilage was thinner and bone structure was decreased. […] The articular cartilage and bone structure increased toward normal.

Janus kinase 2 (JAK2) = assay: JAK2 mRNA expression in psoriasis mice; format: in vivo; details: plasma of psoriasis mice, dose-response fashion
Source text: as §1

[9] = oral 8 days, R-Salbutamol 0.05, 0.1 or 0.2 mg/kg, indomethacin 5 mg/kg
[10] = one week treatment, evaluation at 23rd day, R-S, S-S 1 mg/kg, R-B, S-B 10 mg/kg
[11] = sub-acute or chronic DSS colitis, compared with untreated DSS mice

`CC(C)(C)NC[C@H](O)c1ccc(O)c(CO)c1` [R-S, R-salbutamol] was tested, and the “symptoms of acne, maliaria, hives and eczema” value [1] was “significantly alleviated”, the psoriasis and eczema (psoriasis and eczema) was “significantly ameliorate” and the “therapeutic effects in DSS induced IBD mice” value [2] was “significant therapeutic effects”. The ear skin histopathology ([3]; R-Salbutamol 0.05 mg/kg) was “little effects on eczema”, the ear skin histopathology ([3]; R-Salbutamol 0.1 mg/kg) was “significant reduced monocyte infiltration” and the ear skin histopathology ([3]; R-salbutamol 0.2 mg/kg) was “further reductions in monocyte infiltration and epidermal keratinization”. For the same compound, the “erythema score of both ears” value [3, 9] was “significantly alleviated or prevented”, the “thickness score of both ears” value [3, 9] was “significantly alleviated or prevented” and the “eczema histology and inflammatory infiltration” value ([3]; oral 8 days, dose-dependent response, indomethacin 5 mg/kg) was “significantly improved”. For the same compound, the “perianal manifestations (erythema, abscesses, ulcers)” value (TNBS-induced colitis; TNBS treated mice) was “significantly alleviated”, the “submucosa fibrosis and narrowing of intestinal lumen” value (TNBS-induced colitis; TNBS treated mice) was “not seen; also recorded: significantly reduce the fibrosis and the narrowing of intestinal lumen” and the “weight loss, diarrhea, colon length versus normal control mice” value (TNBS-induced colitis; oral administration) was “No significant different”. The “disease condition of TNBS colitis, in words” value (TNBS-induced colitis; oral administration (R-enantiomers)) was “great ameliorated”, the “Col Length (colon length)” value [4, 10] was 8.2 ± 0.6 and the “DAI (disease active index)” value [4, 10] was 4. The “FOB (fecal occult blood)” value [4, 10] was 0.5 ± 0.5, the “Hist score (histological score)” value [4, 10] was 3 ± 0.5 and the Weight [4, 10] was 114 ± 0.2. For the same compound, the “DAI, in words” value [4, 11] was “significant improved”, the “histological index / histological score, in words” value [4, 11] was “significantly ameliorated” and the “fecal occult blood, in words” value ([4]; sub-acute or chronic DSS colitis, day 14th and 22nd, compared with untreated DSS mice) was “significantly reduced”. For the same compound, the “Psoriasis Area Severity score, high dose” value ([5]; R-salbutamol 2.0 mg/kg oral) was “best effects for all the scores”, the “dose dependence of Psoriasis Area Severity score” value ([5]; R-salbutamol 0.5, 1, 2 mg/kg oral) was “dose-dependent response” and the “histology of psoriasis skin lesions (HE)” value ([5]; dorsal skin, IMQ-induced psoriasis mice) was “mostly recovered”. For the same compound, the “Psoriasis Area Severity score” value ([5]; oral, R-salbutamol 0.5, 1, 2 mg/kg, Dexamethasone 1 mg/kg, compared with psoriasis group) was “significantly reduced”, the hemorrhoid inflammation symptoms [6] was “significantly alleviated” and the “over expression of mRNA of Stat 2” value [7] was “inhibited”. For the same compound, the “damage of articular cartilage, meniscus and bone structure of knee joints” value [8] was “significantly ameliorated” and the “over expression of mRNA of JAK2” value (Janus kinase 2 (JAK2)) was “inhibited”.
